Data: patent US20050209278A1, “Piperidinyl- and piperazinyl-sulfonylmethyl hydroxamic acids and their use as protease inhibitors” (priority 2002, published 2005)
Like-named read-outs stand apart in the source and are kept apart here.

Tests used:
MMP-9 = biological target: T1, MMP-9 (Homo sapiens, UniProt P14780); experiment: In vitro MMP inhibition, Ki determination (fluorogenic substrate II); format: biochemical
T1 construct: made in house; host or cells: MMP-9-transfected HT1080 cells (spent media)
T1 sequence (P14780 107-707 limits assumed): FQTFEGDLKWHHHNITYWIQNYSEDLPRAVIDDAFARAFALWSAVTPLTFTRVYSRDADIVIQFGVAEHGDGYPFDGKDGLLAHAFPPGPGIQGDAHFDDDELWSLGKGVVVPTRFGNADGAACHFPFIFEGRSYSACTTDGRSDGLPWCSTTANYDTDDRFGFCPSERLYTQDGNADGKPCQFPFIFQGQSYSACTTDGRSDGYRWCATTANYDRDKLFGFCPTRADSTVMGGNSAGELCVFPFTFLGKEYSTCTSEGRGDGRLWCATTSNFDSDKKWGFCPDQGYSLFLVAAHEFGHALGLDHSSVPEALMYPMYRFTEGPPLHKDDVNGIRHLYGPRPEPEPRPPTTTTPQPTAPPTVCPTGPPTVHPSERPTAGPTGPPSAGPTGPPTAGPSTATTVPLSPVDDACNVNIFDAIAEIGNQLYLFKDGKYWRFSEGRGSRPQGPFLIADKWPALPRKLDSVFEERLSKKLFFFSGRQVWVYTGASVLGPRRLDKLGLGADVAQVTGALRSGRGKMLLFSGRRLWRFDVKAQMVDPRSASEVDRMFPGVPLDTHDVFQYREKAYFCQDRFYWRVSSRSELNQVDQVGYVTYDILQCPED
In short: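 HT1080-derived MMP-9, activated with APMA, trypsin or MMP-3, incubated 1 hr at room temperature with inhibitor and 4 μM fluorogenic substrate II (at or below Km) in pH 7.5 Tris/NaCl/CaCl2 buffer; ex 330/em 420 nm. Ki from Morrison-equation regression, without substrate correction.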

MMP-13 = biological target: T2, MMP-13 (Homo sapiens, UniProt P45452); experiment: as above; format: biochemical; conditions: read-out: MMP-13 Ki
T2 construct: made in house; host or cells: baculovirus / insect cells
In short: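 Room-temperature, 1 h incubation of APMA-activated recombinant human MMP-13 with 4 μM quenched substrate II (cleaved at Gly-Leu) in pH 7.5 Tris/NaCl/CaCl2 buffer. Inhibition appears as a slowed rise in 330/420 nm fluorescence. Single low enzyme and substrate levels were used for Ki.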

Structure (SMILES) | Ki (MMP-9; value not in parenthesis) | Ki (MMP-13; value not in parenthesis) | Ki (MMP-9; value outside parentheses) | Ki (MMP-13; value outside parentheses)
CCCCc1ccc(N2CCN(S(=O)(=O)C3(C(=O)NO)CCOCC3)CC2)nc1 [Example 168] | 0.16 nM | 0.21 nM |  | 
CCc1ccc(-c2ccc(C3CCN(S(=O)(=O)C4(C(=O)NO)CCOCC4)CC3)nc2)cc1 [Example 393] |  |  | 4.86 nM | 1.09 nM
CCCCc1ccc(C2CCN(S(=O)(=O)C3(C(=O)NO)CCN(CCOC)CC3)CC2)nc1 [Example 397] |  |  | 0.09 nM | 0.54 nM
CCCC#Cc1cnc(N2CCN(S(=O)(=O)C3(C(=O)NO)CCOCC3)CC2)s1 [Example 400] |  |  | 1.4 nM | 0.28 nM
CCCCCC/C=C\C1CCN(S(=O)(=O)C2(C(=O)NO)CCOCC2)CC1 [Example 401] |  |  | 4.22 nM | 9.05 nM
O=C(NO)C1(S(=O)(=O)N2CCC(COCc3ccc(C(F)(F)F)cc3)CC2)CCOCC1 [Example 403] |  |  | 7.37 nM | 2.47 nM
O=C(NO)C1(S(=O)(=O)N2CCC(COCc3ccc(OC(F)(F)F)cc3)CC2)CCOCC1 [Example 404] |  |  | 2.29 nM | 0.33 nM
O=C(NO)C1(S(=O)(=O)N2CCC(COCc3ccc(SC(F)(F)F)cc3)CC2)CCOCC1 [Example 405] |  |  | 3.39 nM | 0.18 nM
O=C(NO)C1(S(=O)(=O)N2CCC(c3ccc(-c4cccs4)c(F)c3)CC2)CCOCC1 [Example 407] |  |  | 1.9 nM | 0.78 nM
O=C(NO)C1(S(=O)(=O)N2CCC(c3ccc(-c4ccccn4)cn3)CC2)CCOCC1 [Example 409] |  |  | 13.6 nM | 22.3 nM
CCCCOc1ccc(C2CCN(S(=O)(=O)C3(C(=O)NO)CCOCC3)CC2)nc1 [Example 410] |  |  | 0.55 nM | 0.2 nM
CCC(F)(F)CCc1ccc(C2CCN(S(=O)(=O)C3(C(=O)NO)CCOCC3)CC2)cn1 [Example 411] |  |  | 2.04 nM | 7.75 nM
Cc1cccc(-c2csc(N3CCN(S(=O)(=O)C4(C(=O)NO)CCOCC4)CC3)n2)c1 [Example 413] |  |  | > 10000 nM | 4830 nM
O=C(NO)C1(S(=O)(=O)N2CCN(c3nc(-c4ccccc4)cs3)CC2)CCOCC1 [Example 415] |  |  | > 10000 nM | 2420 nM
O=C(NO)C1(S(=O)(=O)N2CCC(c3ccc(-c4cccc(F)c4)cn3)CC2)CCOCC1 [Example 417] |  |  | 4.1 nM | 3.84 nM
O=C(NO)C1(S(=O)(=O)N2CCC(c3ccc(OCCC(F)(F)F)cn3)CC2)CCOCC1 [Example 418] |  |  | 1.86 nM | 0.46 nM
O=C(NO)C1(S(=O)(=O)N2CCN(c3ccc(-c4nn[nH]n4)cc3)CC2)CCOCC1 [Example 419] |  |  | 112 nM | 34 nM
CCCCc1ccc(C2(O)CCN(S(=O)(=O)C3(C(=O)NO)CCOCC3)CC2)nc1 [Example 420] |  |  | 80.3 nM | 175 nM

More lines, now with the values ahead:

Ki (MMP-9; value not in parenthesis) | Ki (MMP-13; value not in parenthesis) | Ki (MMP-9; value outside parentheses) | Ki (MMP-13; value outside parentheses) | Structure (SMILES)
0.52 nM | 0.25 nM |  |  | O=C(NO)C1(S(=O)(=O)N2CCN(c3ncc(-c4ccc(Cl)cc4)cn3)CC2)CCOCC1 [Example 66]
0.74 nM | 1.88 nM |  |  | CCCCc1cnc(N2CCN(S(=O)(=O)C3(C(=O)NO)CCOCC3)CC2)nc1 [Example 105]
 |  | 5.67 nM | 0.15 nM | O=C(NO)C1(S(=O)(=O)N2CCC(c3ccc(OCc4ccccc4)cn3)CC2)CCOCC1 [Example 398]
 |  | 0.57 nM | 0.04 nM | N#Cc1ccc(-c2cnc(N3CCN(S(=O)(=O)C4(C(=O)NO)CCOCC4)CC3)s2)cc1 [Example 399]
 |  | 0.19 nM | 0.58 nM | CCCCCC/C=C/C1CCN(S(=O)(=O)C2(C(=O)NO)CCOCC2)CC1 [Example 402]
 |  | 0.76 nM | 1.28 nM | CCCCCCCOC1CCN(S(=O)(=O)C2(C(=O)NO)CCOCC2)CC1 [Example 406]
 |  | 10.2 nM | 11 nM | O=C(NO)C1(S(=O)(=O)N2CCC(c3ccc(N4CCCC4)cn3)CC2)CCOCC1 [Example 408]
 |  | > 10000 nM | > 10000 nM | Cc1ccc(-c2csc(N3CCN(S(=O)(=O)C4(C(=O)NO)CCOCC4)CC3)n2)cc1 [Example 412]
 |  | 1.49 nM | 1.35 nM | Cc1ccc(-c2ccc(C3CCN(S(=O)(=O)C4(C(=O)NO)CCOCC4)CC3)nc2)s1 [Example 416]
